According to US8609651B2, “Pharmaceutical compositions of benzodiazepines and method of use thereof” (Jazz Pharmaceuticals, Inc., priority 2006, dated 2013):
≈ marks a conversion by molar mass, not a printed value. Read-outs that look alike come from different tables or passages of the source.

What was measured:
[1] = Solubility of clonazepam in binary solvent mixtures; details: triacetin/glycofurol 50:50 mixture, 25 °C, organic solvent or mixture, thermodynamic from solid
Description: Further, the solubility of clonazepam in binary mixtures of Transcutol® (TC), triacetin (TA), glycofurol (GF) and propylene glycol (PG) was evaluated. Solubility limits of clonazepam were determined for the following formulations:
Excess drug (50 mg) was capped with about 500 μL of the solvent matrix in a 1.5 mL microfuge tube and the solution was mixed on a vortex shaker for several minutes. Thereafter, the solution was placed in an ultrasonic bath at 25° C. for 45 minutes. The temperature was regulated with a thermometer and controlled by adding ice into the bath. After 15 minutes of standing, the solutions were centrifuged at 3,000×g for 30 minutes. Solutions were then stored for 16 hours at 25° C. in an ICH cabinet protected from light.

[2] = Solubility of benzodiazepines in DEGEE (Transcutol) at 25° C. and −16° C.; details: organic solvent or mixture, thermodynamic from solid
Description: The solubilities of several other benzodiazepines were measured in DEGEE (diethylene glycol monoethyl ether, transcutol) by the techniques of Example 1. Initially, 10 mg of the drug was loaded in the glass vial and 130-μL of DEGEE was added, and the samples were sonicated for 10 minutes. […] Samples were stored at −16° C. and 25° C. overnight, and centrifuged (5000 rpm, 2 minutes, −10° C. and 23° C. for the −16° C. and 25° C. samples, respectively). […] Clonazepam was measured by UV at 350 nm; all others at 300 nm.

[3] = Solubilities of clonazepam in water-containing solvents; format: physicochemical; details: 25 °C
Description: The vials were stored at 25° C. for approximately 1 day. Prior to sampling, the vials were centrifuged at 5000 rpm for 2 minutes at 23° C. The results are shown below; neat solvent solubilities from Example 11 are included for reference. Increased water content decreases solubility substantially.

[4] = Human safety and tolerability (side effects); format: in vivo
Excerpt: Somnolence was reported by 10 of 15 (approximately 67%) subjects after intranasal dosing and 13 of 15 (approximately 87%) subjects after oral dosing. Approximately 93% of the subjects reported somnolence or sedation ( 11/15 for somnolence and 3/15 for sedation) after intravenous dosing. Nasal discomfort was reported by 12 of 15 subjects (approximately 80%) after intranasal dosing.

[5] = Solubilities of clonazepam in glycol ethers at 3 temperatures; details: neat solvent, organic solvent or mixture, thermodynamic from solid
Description: The vials were then centrifuged at −5° C. and 5° C. for the −15° C. and 5° C. samples, respectively, at 5000 rpm for 2 minutes.

[6] = Psychomotor, cognitive and subjective tests in volunteers; format: in vivo; details: human
[7] = Human pharmacokinetic study (oral, intravenous, intranasal cross-over); details: 1 mg; for AUC / Cmax / Tmax / bioavailability: male, plasma; for bioavailability: other: intranasal, intranasal 1 mg
Description: The human pharmacokinetics, safety, and tolerability of the benzodiazepines compositions of the present invention formulated for intranasal delivery for therapeutic applications are evaluated using standard clinical procedures. Benzodiazepine compositions formulated for intranasal delivery are provided, for example, for application by the participants to intranasal mucosa.
A primary objective of initial studies in humans is to determine and compare pharmacokinetic profiles of three dosage forms of a benzodiazepine: oral, i.v., and intranasal, following single administration. An example of such a study in humans is a cross-over study performed in 12 healthy male volunteers. Plasma and urine level of clonazepam and 7-amino-clonazepam are determined, for example, using HPLC and UV detection. […] Further the initial studies in humans are used to determine local tolerability of intranasal formulation using questionnaire and the Visual Analog Scale (VAS). VAS is a validated instrument that has been used in numerous studies to quantify subjective […]. In addition, cognitive, sleepiness and mood effects are evaluated using questionnaires and scales (see, e.g., Example 10 below). Further, attention and vigilance may be evaluated using, for example, LEEDS Psychomotor Multiple Choice Reaction Time (MCRT) testing.
A human pharmacokinetic study was carried out as described in Example 8.
15 young, healthy male volunteers received a single dose of 1 mg clonazepam by oral, intravenous and intranasal routes in a three-period cross-over design.

[8] = Drug recovery, degradation and binding to nasal sheep mucosa; format: in vitro ADME; details: sheep nasal mucosa (excised tissue) in buffer, 37° C., read-out: % recovery in the presence of nasal sheep mucosa
Description: (i) Drug recovery, degradation and binding to nasal sheep mucosa: The effect of drug recovery, degradation and binding to sheep nasal mucosa was determined. Briefly, a known surface area (approx. 1 cm^2) of sheep nasal mucosa was added into a glass vial containing a known concentration (10 μg/mL) of each drug prepared in the receiver fluid (10% ethanol in pH 6 buffer). The content of the vial was allowed to equilibrate at 37° C. over a period of 48 h. At 24 h intervals, a sample was removed and assayed via HPLC. The percentage of drug recovered was calculated using Equation 4: % drug recovered=(drug concentration at t=Y/drug concentration at t=Z)×100 (Equation 4)
where, Y=specific time point at 37° C. (in the presence of nasal sheep mucosa); and Z=specific time point at 37° C. (in the absence of nasal sheep mucosa).
In addition to the stability against heat degradation, the effect of drug binding or degradation in the presence of nasal sheep mucosa was also determined (Table 6).

O=C1CN=C(c2ccccc2Cl)c2cc([N+](=O)[O-])ccc2N1 [Clonazepam, 5-(2-chlorophenyl)-1,3-dihydro-7-nitro-2H-1,4-benzodiazepin-2-one]
solubility at 16 h [1]: ~36.4 mg/mL (≈ 115 mM)
solubility ([2]; 25 °C): 38.9 mg/mL (≈ 123 mM)
solubility ([2]; -16 °C): 35.3 mg/mL (≈ 112 mM)
solubility ([3]; 1,2-dimethyxoethane / pH 6.8 buffered water mixture (20:80), pH 6.8, aqueous with cosolvent or surfactant or cyclodextrin, kinetic from dmso stock, 1,2-dimethyxoethane 20% solvent, 80% pH6.8 buffered water, 25° C.): 0.18 mg/mL (≈ 0.57 mM)
solubility ([3]; 1,2-dimethyxoethane / pH 6.8 buffered water mixture (40:60), pH 6.8, aqueous with cosolvent or surfactant or cyclodextrin, kinetic from dmso stock, 1,2-dimethyxoethane 40% solvent, 60% pH6.8 buffered water, 25° C.): 0.64 mg/mL (≈ 2.03 mM)
solubility ([3]; 1,2-dimethyxoethane / pH 6.8 buffered water mixture (60:40), pH 6.8, aqueous with cosolvent or surfactant or cyclodextrin, kinetic from dmso stock, 1,2-dimethyxoethane 60% solvent, 40% pH6.8 buffered water, 25° C.): 9.2 mg/mL (≈ 29.1 mM)
solubility ([3]; 1,2-dimethyxoethane / pH 6.8 buffered water mixture (80:20), pH 6.8, aqueous with cosolvent or surfactant or cyclodextrin, kinetic from dmso stock, 1,2-dimethyxoethane 80% solvent, 20% pH6.8 buffered water, 25° C.): 29.6 mg/mL (≈ 93.8 mM)
solubility ([3]; 1,2-dimethyxoethane, neat solvent, organic solvent or mixture, 1,2-dimethyxoethane 100% solvent, 0% water, 25° C. (neat, from Example 11)): 39.3 mg/mL (≈ 124 mM)
solubility ([3]; pH 6.8, aqueous with cosolvent or surfactant or cyclodextrin, kinetic from dmso stock, Di (ethylene glycol) methyl ether 20% solvent, 80% pH6.8 buffered water): 0.26 mg/mL (≈ 0.824 mM)
solubility ([3]; pH 6.8, aqueous with cosolvent or surfactant or cyclodextrin, kinetic from dmso stock, Di (ethylene glycol) methyl ether 40% solvent, 60% pH6.8 buffered water): 1 mg/mL (≈ 3.17 mM)
solubility ([3]; pH 6.8, aqueous with cosolvent or surfactant or cyclodextrin, kinetic from dmso stock, Di (ethylene glycol) methyl ether 60% solvent, 40% pH6.8 buffered water): 2.8 mg/mL (≈ 8.87 mM)
solubility ([3]; pH 6.8, aqueous with cosolvent or surfactant or cyclodextrin, kinetic from dmso stock, Di (ethylene glycol) methyl ether 80% solvent, 20% pH6.8 buffered water): 18.9 mg/mL (≈ 59.9 mM)
solubility ([3]; pH 6.8, aqueous with cosolvent or surfactant or cyclodextrin, kinetic from dmso stock, Di (ethyleneglycol) diethyl ether 20% solvent, 80% pH6.8 buffered water): 0.31 mg/mL (≈ 0.982 mM)
solubility ([3]; pH 6.8, aqueous with cosolvent or surfactant or cyclodextrin, kinetic from dmso stock, Di (ethyleneglycol) diethyl ether 40% solvent, 60% pH6.8 buffered water): 1.23 mg/mL (≈ 3.9 mM)
solubility ([3]; pH 6.8, aqueous with cosolvent or surfactant or cyclodextrin, kinetic from dmso stock, Di (ethyleneglycol) diethyl ether 60% solvent, 40% pH6.8 buffered water): 8.5 mg/mL (≈ 26.9 mM)
solubility ([3]; pH 6.8, aqueous with cosolvent or surfactant or cyclodextrin, kinetic from dmso stock, Di (ethyleneglycol) diethyl ether 80% solvent, 20% pH6.8 buffered water): 38.8 mg/mL (≈ 123 mM)
solubility ([3]; pH 6.8, aqueous with cosolvent or surfactant or cyclodextrin, kinetic from dmso stock, Diethylene glycol monoethyl ether 20% solvent, 80% pH6.8 buffered water): 0.3 mg/mL (≈ 0.95 mM)
solubility ([3]; pH 6.8, aqueous with cosolvent or surfactant or cyclodextrin, kinetic from dmso stock, Diethylene glycol monoethyl ether 40% solvent, 60% pH6.8 buffered water): 0.52 mg/mL (≈ 1.65 mM)
solubility ([3]; pH 6.8, aqueous with cosolvent or surfactant or cyclodextrin, kinetic from dmso stock, Diethylene glycol monoethyl ether 60% solvent, 40% pH6.8 buffered water): 4.5 mg/mL (≈ 14.3 mM)
solubility ([3]; pH 6.8, aqueous with cosolvent or surfactant or cyclodextrin, kinetic from dmso stock, Diethylene glycol monoethyl ether 80% solvent, 20% pH6.8 buffered water): 21.8 mg/mL (≈ 69 mM)
solubility ([3]; di(ethylene glycol) diethyl ether, neat solvent, organic solvent or mixture, Di (ethyleneglycol) diethyl ether 100% solvent, 0% water, 25° C. (neat, from Example 11)): 19 mg/mL (≈ 60.2 mM)
solubility ([3]; di(ethylene glycol) methyl ether, neat solvent, organic solvent or mixture, Di (ethylene glycol) methyl ether 100% solvent, 0% water, 25° C. (neat, from Example 11)): 56.4 mg/mL (≈ 179 mM)
solubility ([3]; diethylene glycol monoethyl ether (DEGEE), neat solvent, organic solvent or mixture, Diethylene glycol monoethyl ether 100% solvent, 0% water, 25° C. (neat, from Example 11)): 41.8 mg/mL (≈ 132 mM)
subjects reporting somnolence ([4]; after intranasal dosing, 10 of 15): approximately 67%
subjects reporting nasal discomfort ([4]; after intranasal dosing, 12 of 15): approximately 80%
subjects reporting somnolence or sedation ([4]; after intravenous dosing): Approximately 93%
subjects with sedation ([4]; after intravenous dosing): 3/15
subjects with somnolence ([4]; after intravenous dosing): 11/15
subjects reporting somnolence ([4]; after oral dosing, 13 of 15): approximately 87%
changes in laboratory parameters ([4]; human): no clinically relevant changes
Somnolence reported in the study ([4]; human, all routes): 75.6%
nasal discomfort reported in the study ([4]; human, all routes): 26.7%
solubility ([5]; 1,2-dimethyxoethane, 5 °C): 35.7 mg/mL (≈ 113 mM)
solubility ([5]; 1,2-dimethyxoethane, 25 °C): 39.3 mg/mL (≈ 124 mM)
solubility ([5]; 1,2-dimethyxoethane, -15 °C): 35.2 mg/mL (≈ 111 mM)
solubility ([5]; di(ethylene glycol) diethyl ether, 5 °C): 18.5 mg/mL (≈ 58.6 mM)
solubility ([5]; di(ethylene glycol) diethyl ether, 25 °C): 19 mg/mL (≈ 60.2 mM)
solubility ([5]; di(ethylene glycol) diethyl ether, -15 °C): 19.5 mg/mL (≈ 61.8 mM)
solubility ([5]; di(ethylene glycol) methyl ether, 5 °C): 53.9 mg/mL (≈ 171 mM)
solubility ([5]; di(ethylene glycol) methyl ether, 25 °C): 56.4 mg/mL (≈ 179 mM)
solubility ([5]; di(ethylene glycol) methyl ether, -15 °C): 58.1 mg/mL (≈ 184 mM)
solubility ([5]; diethylene glycol monoethyl ether (DEGEE), 25 °C): 41.8 mg/mL (≈ 132 mM)
solubility ([5]; diethylene glycol monoethyl ether, 5 °C): 37.7 mg/mL (≈ 119 mM)
solubility ([5]; diethylene glycol monoethyl ether, -15 °C): 43.3 mg/mL (≈ 137 mM)
time at which psychomotor and subjective effects were first apparent ([6]; intranasal): approximately 30 minutes
time at which psychomotor and subjective effects were first apparent ([6]; intravenous): approximately 30 minutes
time at which psychomotor and subjective effects were first apparent ([6]; oral): approximately 2 hours
Cmax of the intranasal route as % of the intravenous route [7]: 17%
Cmax of the intranasal route as % of the oral route [7]: 93%
AUC ([7]; inhaled or intranasal): ~58 ng·h/mL
Cmax ([7]; inhaled or intranasal): 7.12 ± 3.81 ng/mL
Tmax ([7]; inhaled or intranasal): 12 min
Tmax ([7]; intravenous): 6 min
AUC ([7]; iv): ~106 ng·h/mL
Cmax ([7]; iv): 42.5 ± 10.8 ng/mL
bioavailability ([7]; bioavailability relative to intravenous): 55%
bioavailability ([7]; bioavailability relative to oral): 61%
AUC ([7]; po): ~95 ng·h/mL
Cmax ([7]; po): 7.64 ± 1.74 ng/mL
Tmax ([7]; po): 120 min
recovery at 24 h, 10 μg/mL ([8]; buffer pH 5 (10% ethanol)): 97.8%
recovery at 48 h, 10 μg/mL ([8]; buffer pH 5 (10% ethanol)): 96.5%
recovery at 24 h, 10 μg/mL ([8]; buffer pH 6 (10% ethanol)): 97.5%
recovery at 48 h, 10 μg/mL ([8]; buffer pH 6 (10% ethanol)): 97.1%
recovery at 24 h, 10 μg/mL ([8]; buffer pH 7 (10% ethanol)): 99.3%
recovery at 48 h, 10 μg/mL ([8]; buffer pH 7 (10% ethanol)): 97.8%
